Measurements reported in patent US11274090B2, “P300/CBP HAT inhibitors” (Constellation Pharmaceuticals, Inc., priority 2018, dated 2022).

Key:
[1] = target: p300 HAT domain (residues 1287-1666) (Homo sapiens (Human), UniProt Q09472); experiment: p300 HAT SPA assay (scintillation proximity assay, acetylation of biotinylated H3(1-21) peptide); type: biochemical; conditions: average of at least 2 replicate titrations
In short: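 Purified p300 HAT domain reaction transferred to streptavidin plates to capture biotinylated H3(1-21) peptide, incubated 1.5 hr at RT, and read by scintillation proximity. IC50 values derived from concentration-response data.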

full length p300 = full length p300 (Homo sapiens (Human), UniProt Q09472); experiment: full length p300 SPA assay; type: biochemical; conditions: average of at least 2 replicate titrations, read-out: FL P300 IC50
Sequence of full length p300 (Q09472 whole entry): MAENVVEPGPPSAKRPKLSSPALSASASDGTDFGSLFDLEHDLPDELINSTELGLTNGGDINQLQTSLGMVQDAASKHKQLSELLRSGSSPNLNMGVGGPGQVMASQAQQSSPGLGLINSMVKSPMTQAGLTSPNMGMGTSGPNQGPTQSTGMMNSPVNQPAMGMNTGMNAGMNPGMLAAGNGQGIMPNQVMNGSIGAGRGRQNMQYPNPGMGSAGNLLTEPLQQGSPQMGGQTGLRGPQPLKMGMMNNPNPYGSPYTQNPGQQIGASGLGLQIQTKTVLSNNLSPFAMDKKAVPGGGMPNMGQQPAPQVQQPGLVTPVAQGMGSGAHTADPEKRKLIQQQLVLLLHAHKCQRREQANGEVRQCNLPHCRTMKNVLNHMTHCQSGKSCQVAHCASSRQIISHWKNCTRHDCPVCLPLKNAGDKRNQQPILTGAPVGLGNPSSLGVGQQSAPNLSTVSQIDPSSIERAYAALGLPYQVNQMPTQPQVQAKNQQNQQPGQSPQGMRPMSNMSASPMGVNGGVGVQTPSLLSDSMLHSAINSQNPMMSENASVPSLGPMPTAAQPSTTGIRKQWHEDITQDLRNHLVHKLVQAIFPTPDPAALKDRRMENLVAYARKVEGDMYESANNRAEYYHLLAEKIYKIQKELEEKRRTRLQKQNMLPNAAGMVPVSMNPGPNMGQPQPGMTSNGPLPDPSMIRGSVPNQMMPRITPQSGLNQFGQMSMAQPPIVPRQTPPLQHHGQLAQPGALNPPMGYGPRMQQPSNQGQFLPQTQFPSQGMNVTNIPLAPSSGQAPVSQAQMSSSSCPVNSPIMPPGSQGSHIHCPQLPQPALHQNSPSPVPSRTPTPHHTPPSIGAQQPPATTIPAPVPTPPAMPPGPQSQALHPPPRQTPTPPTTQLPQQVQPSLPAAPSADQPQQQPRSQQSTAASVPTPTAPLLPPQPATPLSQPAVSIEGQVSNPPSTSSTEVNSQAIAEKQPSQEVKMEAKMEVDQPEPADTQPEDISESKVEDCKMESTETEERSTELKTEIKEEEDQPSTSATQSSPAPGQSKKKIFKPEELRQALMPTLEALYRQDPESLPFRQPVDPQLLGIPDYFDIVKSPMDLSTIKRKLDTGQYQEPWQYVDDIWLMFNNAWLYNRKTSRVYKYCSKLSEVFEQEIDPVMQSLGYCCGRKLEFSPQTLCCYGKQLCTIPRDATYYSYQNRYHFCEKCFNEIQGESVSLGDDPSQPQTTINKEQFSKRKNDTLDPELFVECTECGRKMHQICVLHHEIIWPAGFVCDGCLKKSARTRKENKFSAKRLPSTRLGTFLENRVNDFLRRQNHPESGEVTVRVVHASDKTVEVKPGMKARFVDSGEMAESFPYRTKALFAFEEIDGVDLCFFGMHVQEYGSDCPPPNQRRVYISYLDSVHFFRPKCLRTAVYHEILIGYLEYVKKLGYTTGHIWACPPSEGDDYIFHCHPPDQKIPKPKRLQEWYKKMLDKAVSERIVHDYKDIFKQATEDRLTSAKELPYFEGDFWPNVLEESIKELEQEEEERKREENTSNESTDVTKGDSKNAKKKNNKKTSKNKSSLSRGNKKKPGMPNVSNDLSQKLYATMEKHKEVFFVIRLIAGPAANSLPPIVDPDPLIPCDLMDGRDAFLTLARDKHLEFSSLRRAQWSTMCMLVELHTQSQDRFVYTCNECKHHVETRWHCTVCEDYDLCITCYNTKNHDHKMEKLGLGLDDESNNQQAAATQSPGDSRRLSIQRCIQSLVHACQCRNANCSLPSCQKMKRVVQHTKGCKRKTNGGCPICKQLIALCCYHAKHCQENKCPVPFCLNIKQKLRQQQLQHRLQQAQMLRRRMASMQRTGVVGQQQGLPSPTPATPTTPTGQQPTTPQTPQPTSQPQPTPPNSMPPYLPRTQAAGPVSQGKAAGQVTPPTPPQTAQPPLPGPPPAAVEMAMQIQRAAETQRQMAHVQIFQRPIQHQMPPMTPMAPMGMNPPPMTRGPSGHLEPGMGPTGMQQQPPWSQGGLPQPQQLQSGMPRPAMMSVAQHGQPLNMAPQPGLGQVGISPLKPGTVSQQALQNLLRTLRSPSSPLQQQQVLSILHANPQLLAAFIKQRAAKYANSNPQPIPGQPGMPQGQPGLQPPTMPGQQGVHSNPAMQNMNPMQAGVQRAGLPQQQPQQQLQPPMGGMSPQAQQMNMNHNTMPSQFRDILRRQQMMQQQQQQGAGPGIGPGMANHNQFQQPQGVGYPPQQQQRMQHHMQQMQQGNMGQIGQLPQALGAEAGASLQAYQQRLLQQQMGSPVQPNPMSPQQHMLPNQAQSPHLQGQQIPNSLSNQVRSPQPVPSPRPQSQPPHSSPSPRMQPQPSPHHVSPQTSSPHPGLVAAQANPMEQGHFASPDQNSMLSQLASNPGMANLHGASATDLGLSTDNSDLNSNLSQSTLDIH
Protocol: Reactions were initiated with 12.5 μL 2 μM biotinylated H3(1-21) peptide (New England Peptide) and run for 1 hr at RT, then quenched with 20 μL stop solution (200 mM Tris pH 8.0, 200 mM EDTA, 2M NaCl, 160 μM anacardic acid). 35 μL of the reaction volume was transferred to a 384-well streptavidin FlashPlate (PerkinElmer) using a Bravo liquid handler (Velocity 11) and incubated for 1.5 hr at RT. Plates were aspirated, washed with 95 μL wash buffer (15 mM Tris pH 8.5, 0.069 μM Brij-35), aspirated, sealed, and scintillation counts read on a Topcount (PerkinElmer). Data were analyzed in Genedata to determine inhibitor IC50 values.
The full length p300 SPA assay was run following the same protocol as p300 HAT SPA assay, but used 6 nM purified full length p300 (purchased from Active Motif) in place of the purified p300-HAT domain.

Sequence of p300 HAT domain (residues 1287-1666) (Q09472 1287-1666): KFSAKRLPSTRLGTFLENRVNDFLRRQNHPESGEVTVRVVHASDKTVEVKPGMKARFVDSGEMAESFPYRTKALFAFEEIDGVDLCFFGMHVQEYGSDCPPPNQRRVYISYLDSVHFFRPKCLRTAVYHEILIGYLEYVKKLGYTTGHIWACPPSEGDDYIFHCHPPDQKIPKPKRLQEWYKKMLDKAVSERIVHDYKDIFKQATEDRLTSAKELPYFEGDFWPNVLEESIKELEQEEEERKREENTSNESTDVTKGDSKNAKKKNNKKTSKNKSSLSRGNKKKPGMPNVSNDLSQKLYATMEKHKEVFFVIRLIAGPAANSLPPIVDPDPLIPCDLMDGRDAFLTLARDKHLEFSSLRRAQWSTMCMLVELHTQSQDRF

| Molecule | IC50 [1] [nM] | IC50 (full length p300) [nM] |
| --- | --- | --- |
| Cc1cn(-c2ccc(NC(=O)C(NCCc3ccc(C#N)cc3)c3ccccc3)nc2)cn1 (single isomer, unassigned) [28 Isomer 2] | 2830 | 24 |
| CC(CNC(C(=O)Nc1ccc(-c2cnn(C)c2)cn1)c1ccccc1)c1ccc(C#N)c(F)c1 (single isomer, unassigned) [91 Isomer 2] | 6.4 | 0.75 |
| Cn1cc(-c2ccc3c(c2)CCN3C(=O)C(NCCc2ccc(C#N)cc2)c2ccccc2)cn1 (single isomer, unassigned) [152 Isomer 2] | 31.8 | < 2 |
| CC1CN(c2ccc(NC(=O)C(NC[C@@H](C)c3ccc(C#N)cc3)c3ccccc3)nc2)CC(=O)N1C (single isomer, unassigned) [124 Isomer 1] | 11 | 1.78 |
| Cn1cnc(-c2ccc(NC(=O)C(NCCc3ccc(C#N)cc3)c3ccccc3)nc2)c1 (single isomer, unassigned) [13 Isomer 1] | > 5000 | 273 |
| Cc1cnn(-c2ccc(NC(=O)C(NCC(C)c3ccc(C#N)cc3)c3ccccc3)nc2)c1 (single isomer, unassigned) [62 Isomer 1] | > 2000 | 224 |
| (R, S)- and (S, S)-2-((2- (4- cyanophenyl)propyl)ami- no)-N-(5-(1,3-dimethyl- 1H-pyrazol-4-yl)pyridin- 2-yl)-2-phenylacetamide [113 Isomer 2] | 10.2 | 0.74 |
| CS(=O)(=O)N1CCN(c2ccc(NC(=O)C(NCCc3ccc(C#N)cc3)c3ccccc3)nc2)CC1 (single isomer, unassigned) [68 Isomer 2] | 70 | 1.9 |
| CN1CCN(c2ccc(NC(=O)C(NCCc3ccc(Cl)cc3)c3ccccc3)nc2)CC1=O (single isomer, unassigned) [45 Isomer 2] | 1020 | 43.1 |
| CN1CCN(c2ccc(NC(=O)C(NCCc3ccc(Cl)cc3)c3ccccc3)nc2)CC1=O (single isomer, unassigned) [45 Isomer 1] | 26 | 1.46 |
| Cn1cc(-c2cnc(NC(=O)C(NCCc3ccc(C#N)cc3)c3ccccc3)c(F)c2)cn1 (single isomer, unassigned) [75 Isomer 1] | 149 | 4.2 |
| COC1(C)CCN(c2ccc(NC(=O)C(NCCc3ccc(C#N)cc3)c3ccccc3)nc2)CC1 (single isomer, unassigned) [53 Isomer 1] | 121 | 5.16 |
| Cn1cc(-c2cccc(NC(=O)C(NCCc3ccc(C#N)cc3)c3ccccc3)n2)cn1 (single isomer, unassigned) [123 Isomer 2] | > 2000 | 13500 |
| N#Cc1ccc(CCNC(C(=O)Nc2ccc(-c3cn[nH]c3)cn2)c2ccccc2)cc1 (single isomer, unassigned) [7 Isomer 2] | 376 | 13.4 |
| C[C@H](CNC(C(=O)Nc1ccc(-c2cnn(C)c(=O)c2)cn1)c1ccccc1)c1ccc(C#N)cc1 (single isomer, unassigned) [139 Isomer 1] | 26 | < 3.24 |
| C[C@H](CNC(C(=O)Nc1ccc(-c2ccn(C)c(=O)c2)cn1)c1ccccc1)c1ccc(C#N)cc1 (single isomer, unassigned) [105 Isomer 2] | 16.4 | 0.7 |
| Cc1c(-c2ccc(NC(=O)C(NC[C@@H](C)c3ccc(C#N)cc3)c3ccccc3)nc2)cnn1C (single isomer, unassigned) [114 Isomer 2] | 10.5 | 0.73 |
| COC1CN(c2ccc(NC(=O)C(NCCc3ccc(C#N)cc3)c3ccccc3)nc2)C1 (single isomer, unassigned) [31 Isomer 1] | 71.4 | 2.57 |
| Cn1cc(-c2cnc(NC(=O)C(NCCc3ccc(C#N)cc3)c3ccccc3)cc2F)cn1 (single isomer, unassigned) [74 Isomer 2] | 146 | 5 |
| Cn1cc(-c2ccc(NC(=O)C(NCC(c3ccc(C#N)cc3)C(F)(F)F)c3ccccc3)nc2)cn1 (single isomer, unassigned) [149 Isomer 2] | 19 | < 3.24 |
| N#Cc1ccc(CCNC(C(=O)Nc2ccc(-c3ccccc3)cn2)c2ccccc2)cc1 (single isomer, unassigned) [34 Isomer 1] | > 5000 | 7250 |
| CN1CCN(c2ccc(NC(=O)C(NCCc3ccc(C#N)cc3)c3ccccc3)nc2)CC1=O (single isomer, unassigned) [44 Isomer 2] | 41.6 | 2.66 |
| N#Cc1ccc(CCNC(C(=O)Nc2ccc(-c3ccccc3)cn2)c2ccccc2)cc1 (single isomer, unassigned) [34 Isomer 2] | 361 | 11 |

| Molecule | IC50 [1] [nM] | IC50 (full length p300) [nM] |
| --- | --- | --- |
| Cn1cc(-c2cccc(NC(=O)C(NCCc3ccc(C#N)cc3)c3ccccc3)n2)cn1 (single isomer, unassigned) [123 Isomer 1] | > 2000 | 2020 |
| COC1CN(c2ccc(NC(=O)C(NCCc3ccc(C#N)cc3)c3ccccc3)nc2)C1 (single isomer, unassigned) [31 Isomer 2] | > 5000 | 167 |
| Cc1cnn(-c2ccc(NC(=O)C(NCC(C)c3ccc(C#N)cc3)c3ccccc3)nc2)c1 (single isomer, unassigned) [62 Isomer 4] | 52.6 | < 2 |
| Cc1ccc(CCNC(C(=O)Nc2ccc(-c3cnn(C)c3)cn2)c2ccccc2)cc1 (single isomer, unassigned) [48 Isomer 2] | 1560 | 31.8 |
| CC(=O)N1CCN(c2ccc(NC(=O)C(NCCc3ccc(C#N)cc3)c3ccccc3)nc2)CC1 (single isomer, unassigned) [72 Isomer 1] | 85.2 | 4.13 |
| CC(=O)N1CCN(c2ccc(NC(=O)C(NCCc3ccc(C#N)cc3)c3ccccc3)nc2)CC1 (single isomer, unassigned) [72 Isomer 2] | > 2000 | 46.9 |
| Cc1cnn(-c2ccc(NC(=O)C(NCC(C)c3ccc(C#N)cc3)c3ccccc3)nc2)c1 (single isomer, unassigned) [62 Isomer 3] | > 2000 | 618 |
| Cn1ccc(-c2ccc(NC(=O)C(NCCc3ccc(C#N)cc3)c3ccccc3)nc2)n1 (single isomer, unassigned) [14 Isomer 1] | > 5000 | 176 |
| CC(CNC(C(=O)Nc1ccc(-c2cnn(C)n2)cn1)c1ccccc1)c1ccc(C#N)cc1 (single isomer, unassigned) [98 Isomer 2] | 6.59 | 1 |
| COc1cc(NC(=O)C(NCCc2ccc(C#N)cc2)c2ccccc2)ccc1-c1cnn(C)c1 (single isomer, unassigned) [25 Isomer 1] | 1590 | 40.1 |
| Cc1cc(NC(=O)C(NC[C@@H](C)c2ccc(C#N)cc2)c2ccccc2)ncc1-c1cnn(C)c1 (single isomer, unassigned) [115 Isomer 2] | 32.7 | 1.2 |
| Cc1ccn(-c2ccc(NC(=O)C(NCC(C)c3ccc(C#N)cc3)c3ccccc3)nc2)n1 (single isomer, unassigned) [61 Isomer 2] | > 5000 | 123 |
| Cc1cnn(-c2ccc(NC(=O)C(NCC(C)c3ccc(C#N)cc3)c3ccccc3)nc2)c1 (single isomer, unassigned) [62 Isomer 2] | 565 | 16.7 |
| CN1CCN(c2ccc(NC(=O)C(NCCc3ccc(C#N)cc3)c3ccccc3)nc2)CC1=O (single isomer, unassigned) [44 Isomer 1] | > 2000 | 278 |
| Cc1nn(C)c(C)c1-c1ccc(NC(=O)C(NC[C@@H](C)c2ccc(C#N)cc2)c2ccccc2)nc1 (single isomer, unassigned) [130 Isomer 2] | 14 | < 3.24 |
| COC1(C)CCN(c2ccc(NC(=O)C(NCCc3ccc(C#N)cc3)c3ccccc3)nc2)CC1 (single isomer, unassigned) [53 Isomer 2] | > 2000 | > 1000 |
| Cc1ccn(-c2ccc(NC(=O)C(NCC(C)c3ccc(C#N)cc3)c3ccccc3)nc2)n1 (single isomer, unassigned) [61 Isomer 3] | 31.5 | < 2 |
| Cc1ccn(-c2ccc(NC(=O)C(NCC(C)c3ccc(C#N)cc3)c3ccccc3)nc2)n1 (single isomer, unassigned) [61 Isomer 4] | 1340 | 68.5 |
| Cc1ccc(-c2ccc(NC(=O)C(NCC(C)c3ccc(C#N)cc3)c3ccccc3)nc2)nn1 (single isomer, unassigned) [15 Isomer 4] | 41.3 | 1.5 |
| Cn1cc(-c2cnc(NC(=O)C(NCCc3ccc(C#N)cc3)c3ccccc3)cc2F)cn1 (single isomer, unassigned) [74 Isomer 1] | > 2000 | 214 |
| Cn1cc(-c2ccc3c(c2)CCN3C(=O)C(NCCc2ccc(C#N)cc2)c2ccccc2)cn1 (single isomer, unassigned) [152 Isomer 1] | 966 | 40.6 |
| Cn1cc(-c2cnc(NC(=O)C(NCCc3ccc(C#N)cc3)c3ccccc3)c(F)c2)cn1 (single isomer, unassigned) [75 Isomer 2] | > 2000 | 387 |
| Cc1cnc(-c2ccc(NC(=O)[C@@H](NCCc3ccc(Cl)cc3)c3ccccc3)cc2)[nH]1 (single isomer, unassigned) [9 Isomer 1] | > 5000 | – |
